According to publication PMC9454457 (Journal of Nuclear Medicine, 2022):
Read-outs that look alike come from different tables or passages of the source. Values belong to the molecule of their own block, whether it stands above or below them.

What was measured:
GRPR [1] = target: T1, GRPR (Homo sapiens, UniProt P30550); set-up: method as in PMID 19671861, PMID 17262215; details: 1 h in vitro; cited from earlier work
T1 construct: endogenous in cells; host or cells: PC-3 cells

GRPR [2] = target: T1, GRPR; test: Competitive binding (IC50) on PC-3 cells vs 3-125I-D-Tyr6-MJ9; details: 2 h, room temperature, 3-125I-D-Tyr6-MJ9 0.2 nM/well, n = 3
Procedure: Competitive binding studies were performed on both PC-3 and T-47D cells (1.5 × 10^5 cells in 1 mL/well) via incubation at room temperature for 2 h using 3-^125I-D-Tyr^6-MJ9 (0.2 nM/well) as a radiolabeled reference (n = 3). Internalization studies of the ^177Lu-labeled conjugates (1.0 nM/well) were performed on PC-3 cells (1.5 × 10^5 cells in 1 mL/well) at 37°C for 1 h (n = 6). Data were corrected for nonspecific binding (competition by 10^−3 M ^natLu-RM2).
(§1) FIGURE 2. Preclinical data of ^nat/177Lu-RM2 (red), ^nat/177Lu-NeoBOMB1 (gray), ^nat/177Lu-AMTG (green), and ^nat/177Lu-AMTG2 (blue). (A) Affinity data on PC-3 and T-47D cells (1.5 × 10^5 cells/mL/well) using 3-^125I-D-Tyr^6-MJ9 (0.2 nM/well) as radiolabeled reference (2 h, room temperature, Hanks’ balanced salt solution plus 1% bovine serum albumin [v/v]). (B) GRPR-mediated internalization (0.25 pmol/well) on PC-3 cells as percentage of applied activity (incubation at 37°C for 1 h, Dulbecco modified Eagle medium/F-12 plus 5% bovine serum albumin [v/v], 1.5 × 10^5 cells/mL/well). Data were corrected for nonspecific binding (10^−3 M ^natLu-RM2). (C) Lipophilicity at pH 7.4 (logD7.4). (D) Metabolic stability in vitro in human plasma (left) (37°C, 72 ± 2 h; n = 4), and metabolic stability in vivo in murine plasma (middle) and murine urine (right) at 30 min after injection (n = 3). Data are expressed as mean ± SD.

[3] = Biodistribution in PC-3 tumor-bearing CB17-SCID mice; assay type: in vivo
Procedure: A detailed description of tumor inoculation is provided in the supplemental materials. Approximately 2–5 MBq (100 pmol, 150 μL) of the ^177Lu-labeled GRPR ligands were injected into the tail vein of anesthetized (2% isoflurane) PC-3 tumor–bearing mice (biodistribution, n = 4; imaging, n = 1).
For biodistribution studies, organs were removed, weighed, and measured in a γ-counter (Perkin Elmer) after euthanasia at 24 h after injection.
For all competition studies, 3.62 mg/kg (40 nmol) of ^natLu-RM2 (10^−3 M in phosphate-buffered saline) were coadministered.

[4] = In vitro metabolic stability in human plasma; assay type: in vitro ADME; details: 37°C, 72 ± 2 h, n = 4
Procedure: Metabolic stability in vitro was determined through a procedure published by Linder et al. that was slightly modified ([16]). Immediately after labeling, 200 μL of human plasma were added and the mixture was incubated at 37°C for 72 ± 2 h. Proteins were precipitated by treatment with ice-cold EtOH (150 μL) and ice-cold MeCN (450 μL), followed by centrifugation (13,000 rpm, 20 min). The supernatants were decanted and further centrifuged (13,000 rpm, 10 min) using a Costar Spin-X (Corning) centrifuge tube filter (0.45 μm). The filtrated plasma samples were analyzed using radio–RP-HPLC.
as §1

[5] = In vivo metabolic stability in murine plasma and urine; set-up: species or system CB17-SCID mice; details: 30 min after injection, n = 3
Procedure: Approximately 30–40 MBq (1 nmol, 150 μL) of the ^177Lu-labeled compounds were injected into the tail vein of anesthetized CB17-SCID mice (n = 3). After euthanasia at 30 min after injection, blood and urine samples were collected. Blood proteins were precipitated by treatment with ice-cold MeCN (v/v = 1/1), followed by centrifugation (13,000 rpm, 20 min). The supernatants were decanted and further centrifuged (13,000 rpm, 10 min) using a Costar Spin-X centrifuge tube filter (0.45 μm). The filtrated plasma samples and the urine samples were analyzed using radio–RP-HPLC.
as §1

[6] = Lipophilicity, n-octanol-PBS distribution coefficient (logD7.4); assay type: physicochemical; details: n-octanol/PBS pH 7.4
Procedure: Approximately 1 MBq of the ^177Lu-labeled compound was dissolved in 1 mL of phosphate-buffered saline (pH 7.4) and n-octanol (v/v = 1/1). After stirring for 3 min at room temperature in a vortex mixer and subsequent centrifugation at 9,000 rpm for 5 min (Biofuge 15; Heraeus Sepatech GmbH), 200-μL aliquots of both layers were measured separately in a γ-counter. The experiment was repeated at least 5 times.

[7] = 30 min after injection; cited from earlier work

T1 sequence (P30550 whole entry): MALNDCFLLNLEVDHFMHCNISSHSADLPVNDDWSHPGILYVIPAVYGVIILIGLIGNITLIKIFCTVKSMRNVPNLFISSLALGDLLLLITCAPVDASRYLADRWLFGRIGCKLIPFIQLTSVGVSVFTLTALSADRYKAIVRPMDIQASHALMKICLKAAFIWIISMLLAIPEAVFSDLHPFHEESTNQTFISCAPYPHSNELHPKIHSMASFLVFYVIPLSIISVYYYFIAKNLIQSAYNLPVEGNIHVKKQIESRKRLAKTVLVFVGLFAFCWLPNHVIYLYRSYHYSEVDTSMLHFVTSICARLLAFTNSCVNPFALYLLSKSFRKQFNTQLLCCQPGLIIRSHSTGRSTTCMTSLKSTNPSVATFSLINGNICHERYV

Molecule: DOTA-4-aminobenzoyl-Gln^7- Trp^8-Ala^9- Val^10- Gly^11- His^12- Leu^13-Met^14-NH2 [AMBA]
Internalization rates (GRPR [1]): more than 25%

IC50 (GRPR [2]): 1.3 ± 0.4 nM
Molecule: CC(C)C[C@H](NC(=O)C[C@H](O)[C@H](CC(C)C)NC(=O)[C@H](Cc1c[nH]cn1)NC(=O)CNC(=O)[C@@H](NC(=O)[C@H](C)NC(=O)[C@H](Cc1c[nH]c2ccccc12)NC(=O)[C@H](CCC(N)=O)NC(=O)[C@@H](Cc1ccc(O)c(I)c1)NC(=O)CN1CCC(N)CC1)C(C)C)C(N)=O [cold counterpart of 3-^125I-D-Tyr^6-MJ9]

tissue uptake at 24 h ([3]; CB17-SCID, mouse, adrenal, intravenous, 100 pmol, total radioactivity, 24 h after injection, 100 pmol, n = 4; read-out: Biodistribution, Adrenal): 0.8 ± 0.16 %ID/g | tissue uptake at 24 h ([3]; CB17-SCID, mouse, blood, intravenous, 100 pmol, total radioactivity, 24 h after injection, 100 pmol, n = 4; read-out: Biodistribution, Blood): 0.012 ± 0.001 %ID/g | tissue uptake at 24 h ([3]; CB17-SCID, mouse, bone, intravenous, 100 pmol, total radioactivity, 24 h after injection, 100 pmol, n = 4; read-out: Biodistribution, Bone): 1.31 ± 0.56 %ID/g | tissue uptake at 24 h ([3]; CB17-SCID, mouse, kidney, intravenous, 100 pmol, total radioactivity, 24 h after injection, 100 pmol, n = 4; read-out: Biodistribution, Kidney): 1.79 ± 0.05 %ID/g | tissue uptake at 24 h ([3]; CB17-SCID, mouse, liver, intravenous, 100 pmol, total radioactivity, 24 h after injection, 100 pmol, n = 4; read-out: Biodistribution, Liver): 0.45 ± 0.03 %ID/g | tissue uptake at 24 h ([3]; CB17-SCID, mouse, muscle, intravenous, 100 pmol, total radioactivity, 24 h after injection, 100 pmol, n = 4; read-out: Biodistribution, Muscle): 0.011 ± 0.011 %ID/g | tissue uptake at 24 h ([3]; CB17-SCID, mouse, pancreas, intravenous, 100 pmol, total radioactivity, 24 h after injection, 100 pmol, n = 4; read-out: Biodistribution, Pancreas): 0.43 ± 0.06 %ID/g | tissue uptake at 24 h ([3]; CB17-SCID, mouse, tumor (PC-3), intravenous, 100 pmol, total radioactivity, PC-3 tumor, 24 h after injection, 100 pmol, n = 4; read-out: Biodistribution, Tumor): 8.45 ± 0.19 %ID/g | Intact compound in human plasma in vitro [4]: 38.7% ± 9.3% | Intact tracer in murine plasma in vivo [5]: 11.4% ± 3.7% | Intact tracer in murine urine in vivo [5]: 0.5% ± 0.1%
Molecule: CC(C)C[C@H](NC(=O)C[C@H](O)[C@H](CC(C)C)NC(=O)[C@H](Cc1c[nH]cn1)NC(=O)CNC(=O)[C@@H](NC(=O)[C@H](C)NC(=O)[C@H](Cc1c[nH]c2ccccc12)NC(=O)[C@H](CCC(N)=O)NC(=O)[C@@H](Cc1ccccc1)NC(=O)CN1CCC(NC(=O)CN2CCN(CC(=O)O)CCN(CC(=O)O)CCN(CC(=O)O)CC2)CC1)C(C)C)C(N)=O [^177Lu-RM2, metal not drawn, reference compound]

Molecule: CC(C)CC(CC(C)C)NC(=O)[C@H](Cc1cnc[nH]1)NC(=O)CNC(=O)[C@@H](NC(=O)[C@H](C)NC(=O)[C@H](Cc1c[nH]c2ccccc12)NC(=O)[C@H](CCC(N)=O)NC(=O)[C@@H](Cc1ccccc1)NC(=O)COCC(=O)Nc1ccc(CNC(=O)CN2CCN(CC(=O)O)CCN(CC(=O)O)CCN(CC(=O)O)CC2)cc1)C(C)C [^177Lu-NeoBOMB1, metal not drawn, reference compound]
logD [6]: -0.57 ± 0.03 | Fraction of intact tracer in murine blood [7]: 90% | tissue uptake at 24 h ([3]; CB17-SCID, mouse, blood, intravenous, total radioactivity; 24 h after injection, 100 pmol, n = 4; read-out: Biodistribution, Blood): 0.057 ± 0.027 %ID/g | tissue uptake at 24 h ([3]; CB17-SCID, mouse, heart, intravenous, total radioactivity; 24 h after injection, 100 pmol, n = 4; read-out: Biodistribution, Heart): 0.1 ± 0.03 %ID/g | tissue uptake at 24 h ([3]; CB17-SCID, mouse, intestine, intravenous, total radioactivity; 24 h after injection, 100 pmol, n = 4; read-out: Biodistribution, Intestine): 0.85 ± 0.05 %ID/g | tissue uptake at 24 h ([3]; CB17-SCID, mouse, kidney, intravenous, total radioactivity; 24 h after injection, 100 pmol, n = 4; read-out: Biodistribution, Kidney): 1.9 ± 0.72 %ID/g | tissue uptake at 24 h ([3]; CB17-SCID, mouse, liver, intravenous, total radioactivity; 24 h after injection, 100 pmol, n = 4; read-out: Biodistribution, Liver): 1.6 ± 0.62 %ID/g | tissue uptake at 24 h ([3]; CB17-SCID, mouse, lung, intravenous, total radioactivity; 24 h after injection, 100 pmol, n = 4; read-out: Biodistribution, Lung): 0.43 %ID/g | tissue uptake at 24 h ([3]; CB17-SCID, mouse, muscle, intravenous, total radioactivity; 24 h after injection, 100 pmol, n = 4; read-out: Biodistribution, Muscle): 0.01 ± 0.005 %ID/g | tissue uptake at 24 h ([3]; CB17-SCID, mouse, pancreas, intravenous, total radioactivity; 24 h after injection, 100 pmol, n = 4; read-out: Biodistribution, Pancreas): 8.48 ± 0.92 %ID/g | tissue uptake at 24 h ([3]; CB17-SCID, mouse, spleen, intravenous, total radioactivity; 24 h after injection, 100 pmol, n = 4; read-out: Biodistribution, Spleen): 1.94 ± 0.97 %ID/g | tissue uptake at 24 h ([3]; CB17-SCID, mouse, stomach, intravenous, total radioactivity; 24 h after injection, 100 pmol, n = 4; read-out: Biodistribution, Stomach): 1.29 ± 0.12 %ID/g | tissue uptake at 24 h ([3]; CB17-SCID, mouse, tumor (PC-3), intravenous, total radioactivity; PC-3 tumor, 24 h after injection, 100 pmol, n = 4; read-out: Biodistribution, Tumor): 7.23 ± 0.91 %ID/g | Intact compound in human plasma in vitro [4]: 61.9% ± 2.1% | Intact tracer in murine plasma in vivo [5]: 75.9% ± 0.6% | Intact tracer in murine urine in vivo [5]: 3.9% ± 1.3%
